# Laboratory results as given in patent US10828266B2, “Topical regional neuro-affective therapy with caryophyllene” (Afgin Pharma, LLC, priority 2016, dated 2020).
# Legend:
# CB2 receptors = CB2 receptors (Homo sapiens, UniProt P34972); conditions: background statement; cited from earlier work
# human patients [1] = test: Inventor's observation of onset and duration of therapeutic effect after administration of caryophyllene at the back of the neck; type: in vivo
# Procedure: The inventor has observed rapid therapeutic onset of action, generally, less than 10 to 15 minutes administration of caryophyllene at the back of the neck, with maximal benefit noted well within 30 minutes. In certain embodiments, a prolonged therapeutic effect has been noted, e.g., about 4 to about 12 hours or more, depending on condition and severity of the condition being treated.
# [2] = target: cannabinoid receptor type-1 (CB1) (Homo sapiens, UniProt P21554); conditions: centrally expressed receptor; background statement; cited from earlier work
# human patients [3] = test: Topical Cari-Derm (3% caryophyllene) on the back of the neck of human patients, case series of Table 1; type: in vivo
# Procedure: (§1) The following patients were treated with a topical caryophyllene formulation (referred to in Table 1 as “Cari-Derm”, which is a topical 3% caryophyllene formulation) administered on the back of the neck on human patients, as more specifically described below in Table 1. The 3% Cari-Derm formulation contained approximately 30 mg of caryophyllene in a unit dose (1 gram).
# human patients [4] = test: Response to earlier or current medication as given in the patient history of Table 1; type: in vivo; conditions: patient 11, autism and seizures with poor vision and focus
# Procedure: as §1
# cannabinoid receptor type-1 (CB1), sequence (P21554 whole entry): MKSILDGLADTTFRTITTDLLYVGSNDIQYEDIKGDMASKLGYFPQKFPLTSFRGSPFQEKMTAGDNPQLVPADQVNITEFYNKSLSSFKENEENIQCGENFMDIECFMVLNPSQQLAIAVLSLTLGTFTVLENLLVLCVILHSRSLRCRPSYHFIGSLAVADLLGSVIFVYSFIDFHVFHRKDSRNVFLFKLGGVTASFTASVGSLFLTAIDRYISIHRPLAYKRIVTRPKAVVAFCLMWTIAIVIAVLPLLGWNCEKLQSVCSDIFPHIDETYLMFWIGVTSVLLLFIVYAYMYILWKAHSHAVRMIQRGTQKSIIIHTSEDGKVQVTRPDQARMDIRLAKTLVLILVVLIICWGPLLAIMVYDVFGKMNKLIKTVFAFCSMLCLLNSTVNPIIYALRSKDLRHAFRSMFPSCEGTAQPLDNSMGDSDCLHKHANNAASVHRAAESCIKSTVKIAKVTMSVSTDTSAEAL
# CB2 receptors, sequence (P34972 whole entry): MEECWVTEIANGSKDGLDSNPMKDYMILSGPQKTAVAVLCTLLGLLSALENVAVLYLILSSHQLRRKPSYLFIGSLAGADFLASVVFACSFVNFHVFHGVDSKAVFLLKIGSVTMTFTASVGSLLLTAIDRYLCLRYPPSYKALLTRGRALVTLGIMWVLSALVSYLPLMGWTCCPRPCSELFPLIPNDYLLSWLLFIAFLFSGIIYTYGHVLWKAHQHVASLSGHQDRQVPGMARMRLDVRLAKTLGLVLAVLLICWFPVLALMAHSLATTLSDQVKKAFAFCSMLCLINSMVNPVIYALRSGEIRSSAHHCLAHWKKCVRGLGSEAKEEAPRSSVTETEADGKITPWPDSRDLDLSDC
molecule,measurement,setting,value
"C=C1CC/C=C(\C)CC[C@@H]2[C@@H]1CC2(C)C (relative stereo) [caryophyllene, trans-(1R,9S)-8-Methylene-4,11,11-trimethylbicyclo[7.2.0]undec-4-ene]",action on CB2 receptors,CB2 receptors,acts on CB2 receptors
same,maximal benefit noted,human patients [1],≤ 30 min
same,therapeutic onset of action,human patients [1]; generally,10 to 15 min
same,binding to cannabinoid receptor type-1 (CB1),[2],does not bind
"C=C(C)[C@@H]1CCC(C)=C[C@H]1c1c(O)cc(CCCCC)cc1O [CBD, cannabidiol]",patient's comparison of CBD with Cari-Derm for headache,"human patients [3]; patient 35, chronic headaches and ADHD, uses topical CBD cream",CBD worked better.
"amphetamine, dextroamphetamine mixed salts [Adderall]",agitation on earlier medication,human patients [4],benefit; increased agitation
"CN1CCc2cccc3c2[C@H]1Cc1ccc(O)c(O)c1-3 [Apomorphine, apomorphine]",neck range of motion and pain on adding topical apomorphine,"human patients [3]; patient 14, torticollis with neck pain, apomorphine added after Cari-Derm",improved further.
same,"tremors, focus, talkativeness with added Apomorphine","human patients [3]; patient 20, Parkinson's disease, Apomorphine 5 mg after Cari-Derm",Cari-Derm; further improved
same,"focus, spontaneity, gait after additional Apomorphine","human patients [3]; patient 23, poor focus, impulsivity, gait problems from Parkinson's, additional 5 mg Apomorphine after Cari-Derm",further improvement noted.
"COC(=O)C(c1ccccc1)C1CCCCN1 (stereo not shown) [Ritalin, methylphenidate]",agitation on earlier medication,human patients [4],benefit; increased agitation
